± gives the expanded uncertainty stated by the source.
Conditions: Liquid; Ebulliometric method (Recirculating still)

| Normal boiling temperature | Structure (SMILES) |
| --- | --- |
| 165.80 ± 1 °C | CC(=O)N(C)C [N,N-dimethylethanamide] |
| 99.48 ± 1 °C | CCC(C)O (centres undefined) [butan-2-ol] |
| 190.02 ± 1 °C | C[S+](C)[O-] [dimethyl sulfoxide] |
| 112.18 ± 1 °C | CCC(C)OC(C)=O (centres undefined) [1-methylpropyl ethanoate] |

From the NIST ThermoML archive (doi:10.1016/j.jct.2019.05.005)
